# System: OVCAR-5 complex spheroid (HUVEC/MSC), viability % T/C
# Assay: Anticancer human tumor OVCAR-5 cell line growth inhibition [Asc];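 further: spheroids exposed to agents for 7 days before readout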;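 on viability, T/C: 100% = DMSO vehicle-treated wells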
# Conditions: for IC50: curve of first compound; for viability, T/C: stronger effect = lower value
# Outline: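 Tumor cells were grown as multicellular spheroids with stromal HUVEC and mesenchymal stem cells and treated singly or in combination. Concentrations fell in half-log steps from the clinical Cmax, or from 10 microM where none was known.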
# [1] = second compound 0.1 µM, first compound 0.00316 µM
# [2] = second compound 0.1 µM, first compound 0.01 µM
# [3] = second compound 0.1 µM, first compound 0.0316 µM
# [4] = second compound 0.1 µM, first compound 0.1 µM
# [5] = second compound 0.316 µM, first compound 0.00316 µM
# [6] = second compound 0.316 µM, first compound 0.01 µM
# [7] = second compound 0.316 µM, first compound 0.0316 µM
# [8] = second compound 0.316 µM, first compound 0.1 µM
# [9] = second compound 1 µM, first compound 0.00316 µM
# [10] = second compound 1 µM, first compound 0.01 µM
# [11] = second compound 1 µM, first compound 0.0316 µM
# [12] = second compound 1 µM, first compound 0.1 µM
# [13] = second compound 3.16 µM, first compound 0.00316 µM
# [14] = second compound 3.16 µM, first compound 0.01 µM
# [15] = second compound 3.16 µM, first compound 0.0316 µM
# [16] = second compound 3.16 µM, first compound 0.1 µM
# [17] = second compound 10 µM, first compound 0.00316 µM
# [18] = second compound 10 µM, first compound 0.01 µM
# [19] = second compound 10 µM, first compound 0.0316 µM
# [20] = second compound 10 µM, first compound 0.1 µM
# [21] = second compound 0.1 µM, first compound 0.316 µM
# [22] = second compound 0.1 µM, first compound 1 µM
# [23] = second compound 0.316 µM, first compound 0.316 µM
# [24] = second compound 0.316 µM, first compound 1 µM
# [25] = second compound 1 µM, first compound 0.316 µM
# [26] = second compound 1 µM, first compound 1 µM
# [27] = second compound 3.16 µM, first compound 0.316 µM
# [28] = second compound 3.16 µM, first compound 1 µM
# [29] = second compound 10 µM, first compound 0.316 µM
# [30] = second compound 10 µM, first compound 1 µM
compound,measurement,setting,value
Cc1nc(N2CCC3(CC2)COC(C)C3N)c(CO)nc1Sc1ccnc(N)c1Cl (stereo not given) + CNC(C)C(=O)NC1CN(S(=O)(=O)c2cccc(S(=O)(=O)N3CCC4CCC(C(=O)NC(c5ccccc5)c5ccccc5)N4C(=O)C(NC(=O)C(C)NC)C3)c2)CCC2CCC(C(=O)NC(c3ccccc3)c3ccccc3)N2C1=O,IC50,second compound 0.01 µM,> 3000 nM
same,IC50,second compound 0.0316 µM,> 3000 nM
same,IC50,second compound 0.1 µM,> 3000 nM
same,IC50,second compound 0.316 µM,> 3000 nM
same,IC50,second compound 1 µM,2510 nM
same,"viability, T/C","second compound 0.01 µM, first compound 0.00949 µM",98.5%
same,"viability, T/C","second compound 0.01 µM, first compound 0.03 µM",91%
same,"viability, T/C","second compound 0.01 µM, first compound 0.0949 µM",85%
same,"viability, T/C","second compound 0.01 µM, first compound 0.3 µM",77.7%
same,"viability, T/C","second compound 0.01 µM, first compound 0.949 µM",68.3%
same,"viability, T/C","second compound 0.01 µM, first compound 3 µM",63.8%
same,"viability, T/C","second compound 0.0316 µM, first compound 0.00949 µM",84.5%
same,"viability, T/C","second compound 0.0316 µM, first compound 0.03 µM",92.3%
same,"viability, T/C","second compound 0.0316 µM, first compound 0.0949 µM",76.1%
same,"viability, T/C","second compound 0.0316 µM, first compound 0.3 µM",66.7%
same,"viability, T/C","second compound 0.0316 µM, first compound 0.949 µM",63.2%
same,"viability, T/C","second compound 0.0316 µM, first compound 3 µM",56.2%
same,"viability, T/C","second compound 0.1 µM, first compound 0.00949 µM",84%
same,"viability, T/C","second compound 0.1 µM, first compound 0.03 µM",82.3%
same,"viability, T/C","second compound 0.1 µM, first compound 0.0949 µM",76.7%
same,"viability, T/C","second compound 0.1 µM, first compound 0.3 µM",61.4%
same,"viability, T/C","second compound 0.1 µM, first compound 0.949 µM",58.8%
same,"viability, T/C","second compound 0.1 µM, first compound 3 µM",52.1%
same,"viability, T/C","second compound 0.316 µM, first compound 0.00949 µM",82.7%
same,"viability, T/C","second compound 0.316 µM, first compound 0.03 µM",74.6%
same,"viability, T/C","second compound 0.316 µM, first compound 0.0949 µM",64.4%
same,"viability, T/C","second compound 0.316 µM, first compound 0.3 µM",62.1%
same,"viability, T/C","second compound 0.316 µM, first compound 0.949 µM",51.9%
same,"viability, T/C","second compound 0.316 µM, first compound 3 µM",55.2%
same,"viability, T/C","second compound 1 µM, first compound 0.00949 µM",82.7%
same,"viability, T/C","second compound 1 µM, first compound 0.03 µM",80.8%
same,"viability, T/C","second compound 1 µM, first compound 0.0949 µM",71.7%
same,"viability, T/C","second compound 1 µM, first compound 0.3 µM",64.4%
same,"viability, T/C","second compound 1 µM, first compound 0.949 µM",60.2%
same,"viability, T/C","second compound 1 µM, first compound 3 µM",47.7%
Cn1ncnc1[C@H]1c2n[nH]c(=O)c3cc(F)cc(c23)N[C@@H]1c1ccc(F)cc1 + Cc1c(S(C)(=O)=O)c(-c2cc(F)cc(N3CCN(c4ccc(NS(=O)(=O)c5ccc(NC(CCN6CCC(C(=O)OCCCP(=O)(O)O)CC6)CSc6ccccc6)c(S(=O)(=O)C(F)(F)F)c5)cc4)CC3)c2)c(-c2ccc(Cl)cc2)n1C(C)C,IC50,second compound 0.1 µM,> 100 nM
same,IC50,second compound 0.316 µM,> 100 nM
same,IC50,second compound 1 µM,> 100 nM
same,IC50,second compound 3.16 µM,> 100 nM
same,IC50,second compound 10 µM,> 100 nM
same,"viability, T/C","second compound 0.1 µM, first compound 0.000316 µM",99%
same,"viability, T/C","second compound 0.1 µM, first compound 0.001 µM",101%
same,"viability, T/C",[1],100%
same,"viability, T/C",[2],82.9%
same,"viability, T/C",[3],86%
same,"viability, T/C",[4],91.1%
same,"viability, T/C","second compound 0.316 µM, first compound 0.000316 µM",96.3%
same,"viability, T/C","second compound 0.316 µM, first compound 0.001 µM",95%
same,"viability, T/C",[5],97%
same,"viability, T/C",[6],89.7%
same,"viability, T/C",[7],89.1%
same,"viability, T/C",[8],74.2%
same,"viability, T/C","second compound 1 µM, first compound 0.000316 µM",96.7%
same,"viability, T/C","second compound 1 µM, first compound 0.001 µM",110%
same,"viability, T/C",[9],100%
same,"viability, T/C",[10],91.7%
same,"viability, T/C",[11],76.5%
same,"viability, T/C",[12],89.2%
same,"viability, T/C","second compound 3.16 µM, first compound 0.000316 µM",88.1%
same,"viability, T/C","second compound 3.16 µM, first compound 0.001 µM",90.9%
same,"viability, T/C",[13],91.2%
same,"viability, T/C",[14],70.1%
same,"viability, T/C",[15],87.9%
same,"viability, T/C",[16],76.9%
same,"viability, T/C","second compound 10 µM, first compound 0.000316 µM",117%
same,"viability, T/C","second compound 10 µM, first compound 0.001 µM",138%
same,"viability, T/C",[17],133%
same,"viability, T/C",[18],110%
same,"viability, T/C",[19],97.9%
same,"viability, T/C",[20],102%
O=C(c1cc(Cc2n[nH]c(=O)c3ccccc23)ccc1F)N1CCN(C(=O)C2CC2)CC1 + Cc1c(S(C)(=O)=O)c(-c2cc(F)cc(N3CCN(c4ccc(NS(=O)(=O)c5ccc(NC(CCN6CCC(C(=O)OCCCP(=O)(O)O)CC6)CSc6ccccc6)c(S(=O)(=O)C(F)(F)F)c5)cc4)CC3)c2)c(-c2ccc(Cl)cc2)n1C(C)C,IC50,second compound 0.1 µM,> 10000 nM
same,IC50,second compound 0.316 µM,> 10000 nM
same,IC50,second compound 1 µM,> 10000 nM
same,IC50,second compound 3.16 µM,> 10000 nM
same,IC50,second compound 10 µM,> 10000 nM
same,"viability, T/C",[3],103%
same,"viability, T/C",[4],101%
same,"viability, T/C",[21],90.8%
same,"viability, T/C",[22],82.6%
same,"viability, T/C","second compound 0.1 µM, first compound 3.16 µM",91.5%
same,"viability, T/C","second compound 0.1 µM, first compound 10 µM",76.1%
same,"viability, T/C",[7],95.8%
same,"viability, T/C",[8],95.6%
same,"viability, T/C",[23],84.8%
same,"viability, T/C",[24],79.6%
same,"viability, T/C","second compound 0.316 µM, first compound 3.16 µM",83.6%
same,"viability, T/C","second compound 0.316 µM, first compound 10 µM",78.5%
same,"viability, T/C",[11],92.2%
same,"viability, T/C",[12],89.8%
same,"viability, T/C",[25],88%
same,"viability, T/C",[26],81.4%
same,"viability, T/C","second compound 1 µM, first compound 3.16 µM",78.4%
same,"viability, T/C","second compound 1 µM, first compound 10 µM",62.6%
same,"viability, T/C",[15],86.2%
same,"viability, T/C",[16],94.1%
same,"viability, T/C",[27],82.3%
same,"viability, T/C",[28],75.4%
same,"viability, T/C","second compound 3.16 µM, first compound 3.16 µM",73.4%
same,"viability, T/C","second compound 3.16 µM, first compound 10 µM",64.7%
same,"viability, T/C",[19],130%
same,"viability, T/C",[20],128%
same,"viability, T/C",[29],114%
same,"viability, T/C",[30],95.5%
same,"viability, T/C","second compound 10 µM, first compound 3.16 µM",94.1%
same,"viability, T/C","second compound 10 µM, first compound 10 µM",73.6%
O=C(c1ccc(F)c(F)c1Nc1ccc(I)cc1F)N1CC(O)([C@@H]2CCCCN2)C1 + Cc1c(S(C)(=O)=O)c(-c2cc(F)cc(N3CCN(c4ccc(NS(=O)(=O)c5ccc(NC(CCN6CCC(C(=O)OCCCP(=O)(O)O)CC6)CSc6ccccc6)c(S(=O)(=O)C(F)(F)F)c5)cc4)CC3)c2)c(-c2ccc(Cl)cc2)n1C(C)C,IC50,second compound 0.1 µM,150 nM
same,IC50,second compound 0.316 µM,82.6 nM
same,IC50,second compound 1 µM,78.5 nM
same,IC50,second compound 3.16 µM,59 nM
same,IC50,second compound 10 µM,75.7 nM
same,"viability, T/C",[1],104%
same,"viability, T/C",[2],102%
same,"viability, T/C",[3],71.8%
same,"viability, T/C",[4],54.8%
same,"viability, T/C",[21],41.9%
same,"viability, T/C",[22],17.6%
same,"viability, T/C",[5],93.7%
same,"viability, T/C",[6],97.3%
same,"viability, T/C",[7],66.7%
same,"viability, T/C",[8],42.1%
same,"viability, T/C",[23],32.2%
same,"viability, T/C",[24],9.34%
same,"viability, T/C",[9],90.7%
same,"viability, T/C",[10],95%
same,"viability, T/C",[11],74.5%
same,"viability, T/C",[12],38.3%
same,"viability, T/C",[25],26.9%
same,"viability, T/C",[26],4.46%
same,"viability, T/C",[13],81.2%
same,"viability, T/C",[14],90.4%
same,"viability, T/C",[15],68.1%
same,"viability, T/C",[16],31.6%
same,"viability, T/C",[27],18.6%
same,"viability, T/C",[28],1.8%
same,"viability, T/C",[17],115%
same,"viability, T/C",[18],112%
same,"viability, T/C",[19],78.8%
same,"viability, T/C",[20],41.1%
same,"viability, T/C",[29],12.6%
same,"viability, T/C",[30],2.47%

# Source: PubChem BioAssay AID1963436 (Molecular Pharmacology Branch, DTP, NCI, 2024)
